Where “and” joins values, the source holds several entries; their conditions need not be identical. Equal values may be shown once.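 Following 48 hours of exposure in 96-well plates, responses at five concentrations were used to interpolate endpoints linearly. Here, GI50 denotes the concentration required for 50% inhibition of growth. TGI: concentration producing complete growth inhibition.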
How the values were obtained:
Experiment in all cases: NCI tumour cell line growth inhibition, 48 h
SNB-75 CNS = tested on: SNB-75 CNS
BT-549 breast = tested on: BT-549 breast
ACHN renal = tested on: ACHN renal
HOP-92 NSCLC = tested on: HOP-92 NSCLC
HL-60(TB) leukemia = tested on: HL-60(TB) leukemia
NCI-H226 lung = tested on: NCI-H226 lung
IGROV1 ovarian = tested on: IGROV1 ovarian
HS 578T breast = tested on: HS 578T breast
DU-145 prostate = tested on: DU-145 prostate
SR leukemia = tested on: SR leukemia

Structure (SMILES) | GI50 (SNB-75 CNS) [µM] | TGI (SNB-75 CNS) [µM] | GI50 (BT-549 breast) [µM] | TGI (BT-549 breast) [µM] | GI50 (ACHN renal) [µM] | TGI (ACHN renal) [µM] | GI50 (HOP-92 NSCLC) [µM] | TGI (HOP-92 NSCLC) | GI50 (HL-60(TB) leukemia) [µM] | TGI (HL-60(TB) leukemia) | GI50 (NCI-H226 lung) [µM] | TGI (NCI-H226 lung) [µM] | GI50 (IGROV1 ovarian) [µM] | TGI (IGROV1 ovarian) [µM] | GI50 (HS 578T breast) [µM] | TGI (HS 578T breast) [µM] | GI50 (DU-145 prostate) [µM] | TGI (DU-145 prostate) [µM] | GI50 (SR leukemia) [µM] | TGI (SR leukemia) [µM]
COC(=O)c1ccc2c(c1)C(=O)c1c-2n(CCCCl)c(=O)c2cc([N+](=O)[O-])ccc12 | 61.7 | > 100 | 44.4 | > 100 | 45.2 | > 100 | 23.6 | 90.9 µM | > 100 | > 100 µM | > 100 | > 100 | 34.9 | > 100 | > 100 | > 100 | 37.2 | > 100 | 4.94 | > 100
CCCc1n(Cc2ccc3ccccc3c2)cc[n+]1Cc1ccc2ccccc2c1 | 0.514 | 3.04 | 0.772 | 2.16 | 3.87 | 14.2 | 0.863 | 2.66 µM | 0.321 | 1.17 µM | 1.31 | 3.92 | 0.779 | 2.42 | 1.75 | 6.67 | 1.49 | 7.25 | 0.597 | 2.62
CC(=O)O[C@H]([C@H](OC(C)=O)[C@H](C)OC(C)=O)[C@@H](/C=C/[C@@H]1CC=CC(=O)O1)OC(C)=O | 30.2 | 69.6 | 22.3 | 51.3 | > 100 | > 100 | 17.3 | 61.7 µM | > 100 | > 100 µM | > 100 | > 100 | – | – | 54.7 | > 100 | 37.9 | > 100 | 77.5 | > 100
C=C1C(=O)O[C@H]2[C@H]1CC/C(COC(=O)NCc1c[nH]c3ccccc13)=C\CC[C@@]1(C)O[C@@H]21 | 9.86 | 21.7 | 1.98 | 6.3 | 1.97 | 7.86 | 1.51 | 4.31 µM | 1.54 | 4.22 µM | 2 | 5.55 | 1.96 | 11.6 | 10.3 | 43.9 | 2.35 | 10.7 | 2.22 | 8.35
C[C@H]1/C(=C/C(=O)OCCN(C)C)CC[C@H]2[C@H]1C(=O)C[C@H]1C(C)(C)[C@@H](O)CC[C@]21C | > 100 | > 100 | – | > 100 | – | > 100 | – | > 100 µM | – | > 100 µM | – | > 100 | – | > 100 | – | > 100 | – | > 100 | – | > 100
Cc1ccc2oc(=O)cc(/C(=C3/C=CC=N3)c3ccc[nH]3)c2c1 | 0.335 | 4.46 | 0.346 | 1.58 | 0.694 | 8.56 | 0.155 | 2.57 µM | 0.271 | 0.717 µM | 0.753 | 4.58 | 0.468 | 6.5 | 0.391 | 4.7 | 0.361 | 10.8 | 0.34 | 1.46
CO[C@H]1C=CO[C@@]2(C)Oc3c(C)c(O)c4c(O)c(c(CN5CCN(C)CC5)c(O)c4c3C2=O)NC(=O)/C(C)=C\C=C[C@H](C)[C@H](O)C(C)[C@@H](O)C(C)[C@H](OC(C)=O)[C@@H]1C (stereo partly drawn) | – | > 100 | – | > 100 | – | > 100 | – | > 100 µM | – | 83.7 µM | – | > 100 | – | > 100 | – | > 100 | – | > 100 | – | 35.5
COc1cc2c(c(OC)c1OC)-c1ccc(O)cc1[C@@H](NC(C)=O)CC2 | – | – | 0.152 | > 100 | 0.166 | > 100 | – | > 100 µM | 0.0227 | 0.0645 µM | 0.117 | > 100 | 0.0515 | – | 0.0371 | – | 0.0365 | 0.168 | 0.0265 | –
O=C1CSC(=S)N1c1ccco1 | – | – | – | 50.4 | – | > 100 | – | > 100 µM | – | > 100 µM | – | > 100 | – | > 100 | – | > 100 | – | > 100 | – | > 100
NC(N)=NCC1CCCCCCN1 (stereo not drawn) | – | > 100 | – | > 100 | – | > 100 | – | > 100 µM | – | > 100 µM | – | > 100 | – | > 100 | – | > 100 | – | > 100 | – | > 100
O=C(/C=C/c1ccc(Cl)cc1)c1ccccc(=O)c1O | – | 12.3 | – | 13.5 | – | 6.66 | – | 17 µM | – | 2.04 µM | – | 5.45 | – | 15.8 | – | 31.1 | – | 19.1 | – | > 100
CC(=O)Nc1cc2cc(N)ccc2oc1=O | – | – | – | > 100 | – | > 100 | – | > 100 µM | – | > 100 µM | – | > 100 | – | > 100 | – | > 100 | – | > 100 | – | > 100
CCCCCCCCCCCCCCCC1=NCCN1 | 1.58 | 3.44 | 6.39 | 29.7 | 1.85 | 3.7 | 2.15 | 4.8 µM | 1.73 | 3.89 µM | 2.12 | 4.7 | 1.96 | 4.51 | 2.22 | 6 | 1.9 | 3.57 | 1.84 | 4.31
CCN(CC)CCCC(C)Nc1ccnc2cc(Cl)ccc12 (stereo not drawn) | > 100 | > 100 | 55.9 | > 100 | > 100 | > 100 | 52 | > 100 µM and 44.9 µM | 36.1 | > 100 µM and 34.2 µM | > 100 | > 100 | > 100 | > 100 | > 100 | > 100 | > 100 | > 100 | – | 66.2
CC/C=C\C[C@H](F)C/C=C1/C(=O)C=C[C@@H]1C/C=C\CCCC(=O)OC | 5.64 | 11.7 | 1.5 | 4.15 | 2.46 | 9.07 | – | – | 1.52 | 6.29 µM | 22.2 | 44.6 | 1.94 | 8.58 | 3.51 | 21 | 3.17 | 9.81 | 1.06 | 3.42

From PubChem BioAssay (NCI)
